Like-named read-outs stand apart in the source and are kept apart here.
Key:
[1] = T1 relaxivity of Gd(III) complexes (Bruker mq60 NMR analyzer); assay type: physicochemical; details: aqueous Gd(III) complexes; for T1 relaxivity: pH 7, 59.97 MHz, 37° C.
Method: Gd(NE3TA) and Gd(NE3TA-Bn) were synthesized by reacting GdCl3 with NE3TA and NE3TA-Bn, respectively. NE3TA or NE3TA-Bn were mixed with GdCl3 in a molar ratio of 1 to 0.9, and the resulting mixture at pH 7 was heated to 90° C. and stirred until no free Gd(III) ions were detected using an ArsenazoIII (AAIII) assay. Relaxivity of the aqueous […] complexes (pH 7) was measured on a Bruker MQ60 NMR analyzer, and the concentration of the Gd(III) complexes was measured by ICP-MS. […] NE3TA was successfully conjugated with the most common bile acid, cholic acid (FIG. 41).
(§1) Relaxivity Measurements. Relaxivity measurements were acquired by taking the slope of a plot of 1/T1 (s^−1) versus concentration (mM). The longitudinal water proton relaxation times (T1) were determined using a Bruker mq60 NMR (Bruker Canada, Milton, ON, Canada) analyzer operating at 59.97 MHz and 37° C. The agent was added to Millipore water and serially diluted by 0.5 to give a series of 5 concentrations (500 μL total volume) for each relaxivity trial. The T1 was determined using an inversion recovery pulse sequence with 10 different pulse separations per sample, 4 repetitions per echo time, phase cycling, and a recycle delay that is ≥5 times the T1 of each given sample. All curves were fit using a monoexponential curve fitting formula.
Relaxivity of the aqueous Gd(III) complexes (˜pH 7) were measured on a Bruker MQ60 NMR analyzer, and the concentration of the Gd(III) complexes were measured by ICP-MS. […] As mentioned above, the on and off binding to Gd(III) of one of the pendant coordinates would have resulted enhanced relaxivity of Gd(C-NETA) compared to Gd(C-DOTA). Among the evaluated Gd(III) complexes, Gd(C-NE3TA) gives the highest T1 relaxivity at 60 MHz, probably due to increase in q. The relaxation rates for the Gd(III) chelates are dominated by the inner-sphere dipolar coupling between the coordinated water molecule and the paramagnetic Gd(III). The measured relaxivities arise from the exchange between the coordinated water molecule and the surrounding water molecules in solution. […] No indication of Gd(III) dissociation is evident from the relaxivity data, which is in agreement with the in vitro serum stability and in vivo biodistribution studies.
as §1, with “The T1 relaxivity was determined” for “The T1 was determined”

[2] = cited from earlier work
[3] = In vivo biodistribution of radiolabeled complexes in normal athymic mice; details: for percent injected dose per gram, Blood / percent injected dose per gram, Femur / percent injected dose per gram, Heart / percent injected dose per gram, Kidney / percent injected dose per gram, Liver / percent injected dose per gram, Lung / percent injected dose per gram, Spleen: non-tumor bearing mice, ± SD
Method: The in vivo stability of the radiolabeled complexes was evaluated by performing biodistribution studies in normal athymic mice. Selected organs and the blood were harvested at five time points, 0.5, 1, 4, 8, and 24 h post-injection and the radioactivity measured. […] C-NE3TA radiolabeled with ^153Gd was almost completely cleared from blood, liver, spleen, lung, heart, and femur in less than 4 hours, and radioactivity level in the kidney was 0.16%±0.11 ID/g at 24 hour post-injection (Table 9).
In vivo biodistribution studies oh the radiolabeled metal complexes. Female athymic mice were obtained from Charles River Laboratories (Wilmington, Mass.) at 4-6 weeks of age. The pH of the radiolabeled ligands was adjusted to pH ˜7.0 with 0.5 M sodium bicarbonate (pH 10.5) and diluted in phosphate-buffered saline. The radiolabeled ligands ([…] for ^86Y, ^205/6Bi, ^177Lu, and ^203Pb) were administered to the mice in 200 μL of solution via tail vein injection. The mice (5 per data point) were sacrificed by exsanguination at 0.5, 1, 4, 8, and 24 h. Blood and the major organs were harvested, wet-weighed and the radioactivity measured in a γ-scintillation counter (1480 Wizard, Perkin Elmer). The percent injected dose per gram (% ID/g) was determined for each tissue. The values presented are the mean and standard deviation for each tissue.

[4] = In vitro serum stability of radiolabeled C-NE3TA complexes in human serum (SE-HPLC); assay type: in vitro ADME; details: 37° C., up to 11 days
Method: C-NE3TA was radiolabeled with ^90Y, ^177Lu, ^203Pb, ^205/6Bi, or ^153Gd as previously described (Chong, H. S.; Milenic, D. E.; Garmestani, K.; Brady, E. D.; Arora, H.; Pfiester, C.; Brechbiel, M. W., Nucl. Med. Biol. 2006, 33, 459-67; Chong H S, Garmestani K, Bryant Jr., L H Milenic D E, Overstreet T, Birch N, Le N, Brady E D, Brechbiel M W. J. Med. Chem. 2006, 49, 2055-2062). In vitro serum stability of the radiolabeled complexes purified via ion-exchange chromatography was performed to determine if C-NE3TA labeled with the radioisotopes remained stable without transchelation or loss of their respective radionuclide in human serum. This was assessed by measuring the transfer of radionuclide from the complex to serum proteins over the course of 11 days.
In vitro stability of the radiolabeled metal complexes. The stability of the purified radiolabeled complexes was evaluated in human serum (Gemini Bioproducts, Woodland, Calif.) for up to 11 days. The serum stability of the radiolabeled complexes was assessed by measuring the transfer of the radionuclide from each complex to serum proteins using SE-HPLC methods. Radiolabeled complexes were diluted to an appropriate volume that allowed for preparation of multiple samples containing 5-10 μCi and were filter-sterilized using a Millex-GV 0.22 μm filter. This stock solution was then mixed with 1400 μL of sterile normal human serum. Aliquots (200 μL) were drawn and separated into individual tubes for subsequent analysis using aseptic technique. The samples were incubated at 37° C., and at designated intervals, subjected to analysis by SE-HPLC. Samples were loaded onto the HPLC and eluted with PBS, pH 7.4 isocratically at 1 mL/min. […] Radioactivity associated with a transfer to serum proteins generally appeared at ˜6 min.

## O=C([O-])CN1CCN(CC(=O)[O-])CCN(CC(=O)O)CCN(CC(=O)[O-])CC1.[Gd+3] [Gd(DOTA), reference compound]
[1]
  T1 relaxivity: 2.97 mM⁻¹ s⁻¹

## O=C(O)CNC(Cc1ccc([N+](=O)[O-])cc1)CN1CCN(CC(=O)O)CCN(CC(=O)O)CC1.[Gd] (stereo not drawn) [Gd(C-NE3TA)]
[1]; ~pH 7, 60 MHz
  T1 relaxivity of Gd(III) complexes of bifunctional ligands: 5.89 mM⁻¹ s⁻¹

## O=C(O)CN1CCN(CCN(CC(=O)O)CC(=O)O)CCN(CC(=O)O)CC1.[177Lu] [^177Lu-NETA]
[2]; in vivo
  organ uptake and blood clearance (in words): very low organ uptake and rapid blood clearance

## O=C([O-])CNC(Cc1ccc([N+](=O)[O-])cc1)CN1CCN(CC(=O)[O-])CCN(CC(=O)[O-])CC1.[Bi+3] (stereo not drawn) [^205/6Bi-C-NE3TA]
[3]; 0.50 hr
  percent injected dose per gram, Blood: 0.46 ± 0.18 % ID/g
  percent injected dose per gram, Femur: 0.62 ± 0.27 % ID/g
  percent injected dose per gram, Heart: 0.36 ± 0.09 % ID/g
  percent injected dose per gram, Kidney: 5.05±0.24 % ID/g
  percent injected dose per gram, Liver: 1.01 ± 0.15 % ID/g
  percent injected dose per gram, Lung: 0.56 ± 0.13 % ID/g
  percent injected dose per gram, Spleen: 0.45 ± 0.24 % ID/g
[3]; 0.50 hr, listed as 205/6BiC-NE3TA
  percent injected dose per gram, Kidney: 5.05 ± 0.24 % ID/g
[3]; 1.00 hr
  percent injected dose per gram, Blood: 0.13 ± 0.02 % ID/g
  percent injected dose per gram, Femur: 0.26 ± 0.05 % ID/g
  percent injected dose per gram, Heart: 0.19 ± 0.02 % ID/g
  percent injected dose per gram, Kidney: 4.69 ± 0.55 % ID/g
  percent injected dose per gram, Liver: 0.80 ± 0.16 % ID/g
  percent injected dose per gram, Lung: 0.25 ± 0.03 % ID/g
  percent injected dose per gram, Spleen: 0.25 ± 0.02 % ID/g
[3]; 4.00 hr
  percent injected dose per gram, Blood: 0.03 ± 0.00 % ID/g
  percent injected dose per gram, Femur: 0.23 ± 0.06 % ID/g
  percent injected dose per gram, Heart: 0.12 ± 0.01 % ID/g
  percent injected dose per gram, Kidney: 3.42 ± 0.55 % ID/g
  percent injected dose per gram, Liver: 0.52 ± 0.13 % ID/g
  percent injected dose per gram, Lung: 0.16 ± 0.01 % ID/g
  percent injected dose per gram, Spleen: 0.18 ± 0.01 % ID/g
[3]; 8.00 hr
  percent injected dose per gram, Blood: 0.02 ± 0.01 % ID/g
  percent injected dose per gram, Femur: 0.14 ± 0.02 % ID/g
  percent injected dose per gram, Heart: 0.09 ± 0.01 % ID/g
  percent injected dose per gram, Kidney: 1.99 ± 0.32 % ID/g
  percent injected dose per gram, Liver: 0.37 ± 0.08 % ID/g
  percent injected dose per gram, Lung: 0.13 ± 0.04 % ID/g
  percent injected dose per gram, Spleen: 0.12 ± 0.02 % ID/g
[3]; 24.00 hr
  percent injected dose per gram, Blood: 0.01 ± 0.00 % ID/g
  percent injected dose per gram, Femur: 0.13 ± 0.01 % ID/g
  percent injected dose per gram, Heart: 0.08 ± 0.02 % ID/g
  percent injected dose per gram, Kidney: 0.73±0.19 % ID/g
  percent injected dose per gram, Liver: 0.14 ± 0.03 % ID/g
  percent injected dose per gram, Lung: 0.09 ± 0.01 % ID/g
  percent injected dose per gram, Spleen: 0.13 ± 0.01 % ID/g
[3]; 24.00 hr, listed as 205/6BiC-NE3TA
  percent injected dose per gram, Kidney: 0.73 ± 0.19 % ID/g
[3]; normal athymic mice
  blood and organ clearance (in words): rapidly cleared from the blood, lung, heart, and femur
[4]
  stability in human serum (in words): no measurable loss of radioactivity

## O=C([O-])CN1CCN(CCN(CC(=O)[O-])CC(=O)[O-])CCN(CC(=O)[O-])CC1.[Bi+3] [^205/6Bi-NETA]
[2]; 0 h
  retention in liver: 5.93±0.78 % ID/g
[2]; 24 h
  retention in liver: 7.31±1.521 % ID/g

## O=C(O)CNCCN1CCN(CC(=O)O)CCN(CC(=O)O)CC1.[Gd] [Gd(NE3TA)]
[1]
  T1 relaxivity: 3.94 mM⁻¹ s⁻¹

Source: patent US10189803B2, “Synthesis of therapeutic and diagnostic drugs centered on regioselective and stereoselective ring opening of aziridinium ions” (ILLINOIS INSTITUTE OF TECHNOLOGY, priority 2008, dated 2019)
